{
  "source": "patent US8088727B2",
  "about": "“Method for reducing the risk, lessening the symptom, or delaying the onset of insulin resistance by administering SS-31” (Cornell University, priority 2008, dated 2012)",
  "key": {"[1]": {"biological_target": "mu-opioid receptor (Homo sapiens, UniProt P35372)", "sequence (P35372 whole entry, species assumed)": "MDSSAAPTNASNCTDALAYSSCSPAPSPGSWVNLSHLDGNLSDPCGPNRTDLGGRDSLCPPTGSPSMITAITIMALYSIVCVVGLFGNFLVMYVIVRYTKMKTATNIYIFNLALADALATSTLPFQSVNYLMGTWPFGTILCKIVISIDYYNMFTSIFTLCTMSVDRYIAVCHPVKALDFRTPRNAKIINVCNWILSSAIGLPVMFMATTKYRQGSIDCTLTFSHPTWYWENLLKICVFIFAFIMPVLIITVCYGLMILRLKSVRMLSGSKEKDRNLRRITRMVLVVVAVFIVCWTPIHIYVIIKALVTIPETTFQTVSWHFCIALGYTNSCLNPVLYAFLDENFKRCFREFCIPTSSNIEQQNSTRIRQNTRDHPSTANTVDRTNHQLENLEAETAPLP", "settings": "cited from earlier work"}, "[2]": {"system": "several mammalian cell types", "settings": "several mammalian cell types (Zhao et al. 2003); cited from earlier work"}, "[3]": {"system": "pancreatic islet cells", "settings": "pancreatic islet cells after transplantation (Thomas et al. 2005); cited from earlier work"}, "[4]": {"system": "mitochondrial H2O2 emission in permeabilized skeletal muscle fiber bundles", "test": "Mitochondrial H2O2 emission in permeabilized skeletal muscle fiber bundles, SS-31 dose response in vitro", "format": "cell-based, rat", "settings": "dose response curve in vitro (FIG. 3A), succinate-supported respiration", "protocol": "Preparation of permeabilized muscle fiber bundles. Briefly, small portions (25 mg) of soleus, RG, and WG muscle were dissected and placed in ice-cold buffer X, containing 60 mM K-MES, 35 mM KCl, 7.23 mM K2 EGTA, 2.77 mM CaK2EGTA, 20 mM imidazole, 0.5 mM DTT, 20 mM taurine, 5.7 mM ATP, 15 mM PCr, and 6.56 mM MgCl2·6H2O (pH 7.1, 295 mosmol/kg H2O). The muscle was trimmed of connective tissue and cut down to fiber bundles (2×7 mm, 4-8 mg wet wt). With a pair of needle-tipped forceps under a dissecting microscope, fibers were gently separated from one another to maximize surface area of the fiber bundle, leaving only small regions of contact. […]\nMitochondrial respiration and H2O2 emission measurements. […] Mitochondrial H2O2 emission was measured at 30° C. during state 4 respiration in Buffer Z (10 μg/ml oligomycin) by continuously monitoring oxidation of Amplex Red using a Spex Fluoromax 3 (Jobin Yvon, Ltd.) spectrofluorometer with temperature control and magnetic stirring at >1000 rpm. […] After baseline fluorescence (reactants only) was established, the reaction was initiated by addition of a permeabilized fiber bundle to 300 μl of buffer Z containing 5 μM Amplex Red and 0.5 U/ml HRP, with succinate at […]. […] The rate of respiration is expressed as pmol·s^−1·mg dry weight^−1, and mitochondrial H2O2 emission expressed as pmol·min^−1·mg dry weight^−1. […]"}, "[5]": {"system": "hearts subjected to myocardial stunning", "settings": "hearts subjected to myocardial stunning (Zhao et al. 2004); cited from earlier work"}, "[6]": {"system": "animal models of Parkinson's and amyotrophic lateral sclerosis disease", "settings": "animal models of Parkinson's and amyotrophic lateral sclerosis disease (Petri et al. 2006; Szeto et al. 2006); cited from earlier work"}, "[7]": {"settings": "rat, in vivo", "source_text": "(§1) Next, rats were placed on a high fat diet (60%) for six weeks with or without daily administration of SS-31."}, "[8]": {"system": "fatty (fa/fa) Zucker rat", "settings": "SS-31 1.0-5.0 mg/kg i.p. or oral, approximately 6 weeks", "method": "Measured outcomes include body weight, fasting glucose/insulin/free fatty acid, glucose tolerance (OGTT), in vitro muscle insulin sensitivity (incubation), markers of insulin signaling (Akt-P, IRS-P), mitochondrial function studies on permeabilized fibers (respiration, H2O2 emission), markers of intracellular oxidative stress (lipid peroxidation, GSH/GSSG ratio, aconitase activity) and mitochondrial enzyme activity. […] Successful prevention of insulin resistance by the aromatic-cationic peptides of the invention is indicated by a reduction in one or more of the markers associated with insulin resistance or mitochondrial dysfunction enumerated above.\nMeasured outcomes include body weight, fasting glucose/insulin/free fatty acid, glucose tolerance (OGTT), in vitro muscle insulin sensitivity (incubation), markers of insulin signaling (Akt-P, IRS-P), mitochondrial function studies on permeabilized fibers (respiration, H2O2 emission), markers of intracellular oxidative stress (lipid peroxidation, GSH/GSSG ratio, aconitase activity) and mitochondrial enzyme activity. […] Successful treatment of insulin resistance by the aromatic-cationic peptides of the invention is indicated by a reduction in one or more of the markers associated with insulin resistance or mitochondrial dysfunction enumerated above."}, "[9]": {"system": "Akt", "test": "Akt phosphorylation in skeletal muscle after oral glucose load", "format": "in vivo, rat", "settings": "skeletal muscle of high fat fed rats, 1 h after oral glucose load (FIGS. 4E and 4F)", "protocol": "Increased homeostatic model assessment (HOMA, FIG. 4C), and greater area under the curves for both blood glucose and insulin (FIG. 4D) confirmed the development of insulin resistance in high fat fed rats. […] To further assess insulin sensitivity, the phosphorylation state of the insulin signaling protein Akt in skeletal muscle from animals was measured after a 10 h fast or 1 h after receiving an oral glucose load. In response to glucose ingestion, Akt phosphorylation increased ˜5-fold in skeletal muscle of chow-fed controls but was unchanged in high fat fed rats (FIGS. 4E and 4F), confirming the presence of insulin resistance at the level of insulin signaling."}, "[10]": {"system": "skeletal muscle mitochondrial H2O2 emission of high fat fed rats", "test": "Mitochondrial H2O2 emission in permeabilized fibers from high fat fed rats given SS-31", "format": "in vivo, rat", "settings": "for increase in mitochondrial oxidant emitting potential: high fat diet (60%) six weeks", "source_text": "as §1"}, "[11]": {"system": "mitochondrial inner membrane", "settings": "while scavenging ROS; cited from earlier work"}, "[12]": {"system": "skeletal muscle mitochondrial respiration of high fat fed rats", "test": "Mitochondrial respiration in permeabilized fibers from high fat fed rats given SS-31", "format": "in vivo, rat", "source_text": "as §1"}, "[13]": {"system": "intracellular redox environment in skeletal muscle", "test": "Total glutathione and GSH/GSSG ratio in skeletal muscle of high fat fed rats", "format": "in vivo, rat", "protocol": "Protein homogenates were prepared by homogenizing 100 mg of powered frozen muscle in a buffer containing in mM: 10 Tris, 1 EDTA, 1 EGTA, 2 NaOrthovanadate, 2 NaPyrophosphate, 5 NaF, protease inhibitor cocktail (Complete) at pH 7.2. After homogenization, 1% Triton X-100 was added to the protein suspension, cotexed and allowed to sit on ice for 5 minutes. The tubes were then spun at 10,000 rpm for 10 minutes to pellet the insoluble debris. For GSSG measurement, tissue was homogenized in a solution containing 20 mM Methyl-2-vinylpyridinium triflate to scavenge all reduced thiols in the sample. Total GSH and GSSG were then measured using the reagents and calibration set provided by the GSH/GSSG assay (Oxis Research) according to the manufacturer's instructions, with small modifications as needed.\nTo establish a link between the increased mitochondrial oxidant emission brought about by high fat diet and its effect on overall redox environment of skeletal muscle, both GSH and GSSG were measured in skeletal muscle of chow fed and high fat fed rats under two conditions; after a 10 h fast and 1 h after administration of a standard glucose load (oral gavage, 10 h fasted). […]"}, "[14]": {"system": "high fat diet-induced insulin resistance", "test": "Oral glucose tolerance test after six week high fat diet", "format": "in vivo, rat", "protocol": "To determine whether mitochondrial-derived changes in intracellular redox environment may be linked to the etiology of high fat diet-induced insulin resistance, oral glucose tolerance tests were performed in rats after the six week high fat diet. On the day of experiments, food was removed 10 hr prior to administration of a 2 g/kg glucose solution via gavage. Glucose levels were determined on whole blood samples (Lifescan, Milpitas, Calif.). Serum insulin levels were determined via a rat/mouse ELISA kit (Linco Research, St. Charles, Mo.). Fasting data were used to determine homeostatic model assessment (HOMA)-calculated as fasting insulin (μU/ml) x fasting glucose (mM)/22.5."}},
  "note": "Square brackets hold non-standard residues; d marks the D form. Ends that are not written are not given here. Peptide text beside a SMILES is read from it. Dmt = Cc1cc(O)cc(C)c1C[C@H](N)C(=O)O",
  "data": [
    {"compound": "F[dR]FK-NH2 [SS-20]", "values": [
      {"measurement": "mu-opioid receptor agonist activity", "setting": "[1]", "value": "does not have mu-opioid receptor agonist activity"}
    ]},
    {"compound": "Tyr-D-Arg-Phe-Lys-NH2 [SS-01]", "values": [
      {"measurement": "mu-opioid receptor agonist activity", "setting": "[1]", "value": "has mu-opioid receptor agonist activity"}
    ]},
    {"compound": "2′,6′-Dmt-D-Arg-Phe-Lys-NH2 [SS-02]", "values": [
      {"measurement": "penetration of the plasma membrane", "setting": "[2]", "value": "readily penetrates"}
    ]},
    {"compound": "Cc1cc(O)cc(C)c1C[C@H](NC(=O)[C@H](N)CCCNC(=N)N)C(=O)N[C@@H](CCCCN)C(=O)N[C@@H](Cc1ccccc1)C(N)=O", "note": "[SS-31, D-Arg-2′6′Dmt-Lys-Phe-NH2] (H-[dR][Dmt]KF-NH2)", "values": [
      {"measurement": "ROS", "setting": "[3]", "value": "effectively reduce ROS"},
      {"measurement": "reduction in mitochondrial H2O2 emission", "setting": "[4]", "value": "greater than 50%"},
      {"measurement": "ROS", "setting": "[5]", "value": "effectively reduce ROS"},
      {"measurement": "ROS", "setting": "[6]", "value": "effectively reduce ROS"},
      {"measurement": "mu-opioid receptor agonist activity", "setting": "[1]", "value": "does not have mu-opioid receptor agonist activity"},
      {"measurement": "weight gain", "setting": "[7]", "value": "did not affect"},
      {"measurement": "whole body and muscle insulin resistance", "setting": "[8]; Zucker rats (~12 weeks of age)", "value": "ameliorate or reduce"},
      {"measurement": "development of whole body and muscle insulin resistance", "setting": "[8]; young Zucker rats (~3-4 weeks of age)", "value": "attenuate or prevent"},
      {"measurement": "Akt phosphorylation in response to glucose ingestion", "setting": "[9]", "value": "completely preserved"},
      {"measurement": "reduction in mitochondrial H2O2 emission", "setting": "[10]; dose response curve in vivo (FIG. 3B), succinate-supported respiration", "value": "greater than 50%"},
      {"measurement": "increase in mitochondrial oxidant emitting potential", "setting": "[10]; palmitoyl-carnitine supported respiration, daily SS-31 (FIG. 3D)", "value": "completely prevented"},
      {"measurement": "increase in mitochondrial oxidant emitting potential", "setting": "[10]; succinate supported respiration, daily SS-31 (FIG. 3C)", "value": "completely prevented"},
      {"measurement": "effect on membrane potential or respiratory control", "setting": "[11]", "value": "without affecting"},
      {"measurement": "basal rate of respiration", "setting": "[12]; palmitoyl-carnitine-supported, high fat fed rats (FIG. 3F)", "value": "not affected"},
      {"measurement": "basal rate of respiration", "setting": "[12]; pyruvate/malate-supported, high fat fed rats (FIG. 3E)", "value": "not affected"},
      {"measurement": "GSH/GSSG ratio", "setting": "[13]; high fat fed rats, 10 h fast and 1 h after glucose ingestion (FIG. 3H)", "value": "preserved the GSH/GSSG ratio near control levels"},
      {"measurement": "reduction in total cellular glutathione content (GSHT)", "setting": "[13]; high fat feeding with SS-31 treatment, skeletal muscle (FIG. 3G)", "value": "~30", "unit": "%"},
      {"measurement": "development of insulin resistance (HOMA, area under the curves for blood glucose and insulin)", "setting": "[14]; high fat fed rats (FIGS. 4C and 4D)", "value": "completely blocked"},
      {"measurement": "blood glucose response to the oral glucose challenge", "setting": "[14]; high fat fed rats, 2 g/kg glucose by gavage (FIG. 4A)", "value": "normalized"},
      {"measurement": "insulin response to the oral glucose challenge", "setting": "[14]; high fat fed rats, 2 g/kg glucose by gavage (FIG. 4B)", "value": "normalized"}
    ]}
  ]
}
